Among the data in US20260285853A1, “COMPOUNDS AND METHODS FOR MODULATING SPLICING” (REMIX THERAPEUTICS INC., priority 2023, published 2026) are IC50, GI50 and AC50 values, retold here.

Molecules are shown by their SMILES.

Format in all cases: cell-based
In assay [1] the test system is HTT mRNA. The assay can be described thus: Gene panel canonical junction qPCR assay, decrease in CJ mRNA, Table 3. Conditions: decrease in canonical junction (CJ) mRNA, gene panel qPCR, Table 3. How it is done: (§1) Compounds described herein were used to modulate RNA transcript abundance in cells. The expression of a target mRNA was measured by detecting the formation of an exon-exon junction in the canonical transcript (CJ). A compound mediated exon-inclusion event was detected by observing an increase in formation of a new junction with an alternative exon (AJ). Real-time qPCR assays were used to detect these splicing switches and interrogate the potency of various compounds towards different target genes. A high-throughput real time quantitative PCR (RT-qPCR) assay was developed to measure these two isoforms of the mRNA (CJ and AJ) for exemplary genes, such as HTT, SMN2, and MYB, together with a control housekeeping gene, GAPDH or GUSB or PPIA, used for normalization. Briefly, the A673 or K562 cell line was treated with various compounds described herein (e.g., compounds of Formula (I)). After treatment, the levels of the HTT, MYB, or SMN2 mRNA targets were determined from each sample of cell lysate by cDNA synthesis followed by qPCR.
(§2) The A673 cell line was cultured in DMEM with 10% FBS. Cells were diluted with full growth media and plated in a 96-well plate (15,000 cells in 100 ul media per well). The plate was incubated at 37° C. with 5% CO2 for 24 hours to allow cells to adhere. An 11-point 3-fold serial dilution of the compounds was made in DMSO then diluted in media in an intermediate plate. Compounds were transferred from the intermediate plate to the cell plate with the top dose at a final concentration of 10 uM in the well. Final DMSO concentration was kept at or below 0.25%. The cell plate was returned to the incubator at 37° C. with 5% CO2 for an additional 24 hours.
(§3) The K562 cell line was cultured in IMDM with 10% FBS. For K562, cells were diluted with full growth media and plated in either a 96-well plate (50,000 cells in 50 uL media per well) or a 384-well plate (8,000-40,000 cells in 45 uL media per well). An 11-point 3-fold serial dilution of the compounds were made in DMSO then diluted in media in an intermediate plate. Compound was transferred from the intermediate plate to the cell plate with the top dose at a final concentration of 10 uM in the well. Final DMSO concentration was kept at or below 0.25%. Final volume was 100 uL for 96-well plate and 50 uL for 384-well plate. The cell plate was then placed in an incubator at 37° C. with 5% CO2 for 24 hours.
(§4) The data analysis was performed by first determining the ΔCt vs the housekeeper gene. This ΔCt was then normalized against the DMSO control (ΔΔCt) and converted to RQ (relative quantification) using the 2^(−ΔΔCt) equation. The RQ were then converted to a percentage response by arbitrarily setting an assay window of 3.5 and 4.0 ΔCt for HTT-CJ and MYB-CJ respectively and an assay window of 9 and 3 ΔCt for HTT-AJ and MYB-AJ in 96 well format (50,000 K562 cells/well and 15,000 A673 cells per well) and an assay window of 3 and 4 ΔCt for HTT-CJ and MYB-CJ respectively and an assay window of 5 and 3 ΔCt for HTT-AJ and MYB-AJ respectively in 384 well format (8,000 K562 cells/well example). […] The percentage response was then fitted to the 4 parametric logistic equation to evaluate the concentration dependence of compound treatment. The increase in AJ mRNA is reported as AC50 (compound concentration having 50% response in AJ increase) while the decrease in CJ mRNA levels is reported as IC50 (compound concentration having 50% response in CJ decrease).
(§5) Additional studies were carried out for a larger panel of genes using the protocol provided above. The junction between flanking upstream and downstream exons was used to design canonical junction qPCR assays. At least one of the forward primer, reverse primer or the CY5-labeled 5′ nuclease probe (with 3′ quencher such as ZEN/Iowa Black FQ) was designed to overlap with the exon junction to capture the CJ mRNA transcript. […]

Assay [2] deals with MYB mRNA. The description is as above. To be noted: decrease in canonical junction (CJ) mRNA, gene panel qPCR, Table 3. As to the method:
as §1, §2, §3, §4, §5

Assay [3] relates to SH-SY5Y (human neuroblastoma) cells. Description: Cell viability, Cell Titer Glo 2.0 assay. Conditions: read-out: Viability SHSY5Y.3 GI50. How it is done: Compounds described herein were screened for toxicity in K562 (human chronic myelogenous leukemia) and SH-SY5Y (human neuroblastoma) cells using a Cell Titer Glo 2.0 assay.
• Promega CellTiter-Glo® 2.0 Cell Viability Assay (cat #G9241) • Corning 384-well TC-treated microplates (cat #3570)
Cells were plated at 500 cells/well (K562 cells) in 45 μL of IMDM supplemented with 10% FBS in a 384-well opaque plate. Wells containing only medium were used as a blank control. Test compounds (e.g., compounds of Formula (I) or (II) were first serially diluted in DMSO then diluted 1:100 with IMDM+10% FBS. The final concentration of DMSO was 0.1% in each well. The cells were incubated for 72 hours at 37° C. and 5% CO2 before assaying with Cell Titer Glo 2.0 reagent.

Assay [4] deals with MYB mRNA. The assay can be described thus: Splicing RT-qPCR assay (THP), Table 2A. Conditions: Table 2A (THP); for AC50: AJ mRNA increase, read-out: MYB AJ (increase in alternative junction mRNA, AC50); for IC50: CJ mRNA decrease, read-out: MYB CJ (decrease in canonical junction mRNA, IC50).
In assay [5] the test system is HTT mRNA. Description: Splicing RT-qPCR assay (THP), Table 2A. To be noted: Table 2A (THP); for AC50: AJ mRNA increase, read-out: HTT AJ (increase in alternative junction mRNA, AC50); for IC50: CJ mRNA decrease, read-out: HTT CJ (decrease in canonical junction mRNA, IC50).

Regarding `CCNC1CCN(c2ccc(C(=O)Nc3cc(CO)c4nc(C)cn4c3)c3nn(C)cc23)CC1` [Compound 329, 4-[4-(ethylamino)-1-piperidyl]-N-[8-(hydroxymethyl)-2-methyl-imidazo[1,2-a]pyridin-6-yl]-2-methyl-indazole-7-carboxamide], the IC50 was over 10000 nM with HTT mRNA [1], 100 to 1000 nM in the assay on MYB mRNA [2], 100 to 1000 nM in the assay with MYB mRNA [4] and over 10000 nM in the assay on HTT mRNA [5]. Moreover, in assay [3], the GI50 is 1000 to 10000 nM. The AC50 with MYB mRNA [4] lay within 100 to 1000 nM; in the assay with HTT mRNA [5] it was 1000 to 10000 nM.

In the case of `COc1c(NC(=O)c2c(F)cc(N3CCS(=N)(=O)CC3)c3cn(C)nc23)cn2cc(C)nc2c1F` [Compound 330, 6-fluoro-N-(8-fluoro-7-meth-oxy-2-methyl-imidazo[1,2-a]-pyridin-6-yl)-4-(1-imino-1-oxo-1,4-thiazinan-4-yl)-2-methyl-indazole-7-carboxamide], the IC50 in the assay on HTT mRNA [1] was over 10000 nM; with MYB mRNA [2] it was 1000 to 10000 nM; in the assay on MYB mRNA [4], 1000 to 10000 nM; with HTT mRNA [5], over 10000 nM. Further, the 50% growth inhibitory concentration (GI50) in assay [3] was over 10000 nM. Besides, the half-maximal activity concentration (AC50) was 100 to 1000 nM with MYB mRNA [4] and over 10000 nM with HTT mRNA [5].

Turning to `CCNC1CCN(c2cc(F)c(C(=O)Nc3cn4cc(C)nc4cc3OC)c3nn(C)cc23)CC1` [Compound 331, 4-[4-(ethylamino)-1-piperidyl]-6-fluoro-N-(7-methoxy-2-methyl-imidazo [1,2-a]pyridin-6-yl)-2-methyl-indazole-7-carboxamide], the IC50 with HTT mRNA [1] was 100 to 1000 nM; in the assay on MYB mRNA [2] it was under 100 nM; in the assay on MYB mRNA [4], under 100 nM; in the assay with HTT mRNA [5] it was 100 to 1000 nM. Moreover, the 50% growth inhibitory concentration (GI50) in assay [3] fell in the range of 1000 to 10000 nM. The concentration at half-maximal activity (AC50) in the assay on MYB mRNA [4] was under 100 nM; in the assay on HTT mRNA [5], 100 to 1000 nM.

As to `CCNC1CCN(c2cc(O)c(C(=O)Nc3cn4cc(C)nc(C)c4n3)c3nn(C)cc23)CC1` [Compound 332, N-(6,8-dimethylimidazo[1,2-a]pyrazin-2-yl)-4-(4-(ethylamino)piperidin-1-yl)-6-hydroxy-2-methyl-2H-indazole-7-carboxamide 2,2,2-trifluoroacetate], the IC50 was over 10000 nM in the assay on HTT mRNA [1], 100 to 1000 nM in the assay on MYB mRNA [2], 100 to 1000 nM with MYB mRNA [4] and over 10000 nM in the assay on HTT mRNA [5]. Besides, in assay [3], the concentration for 50% growth inhibition (GI50) was in the range of 1000 to 10000 nM. Further, the values for the AC50 in the assay on MYB mRNA [4] and in the assay with HTT mRNA [5] were 100 to 1000 nM and over 10000 nM, respectively.

On to `CCNC1CCN(c2cc(OC)c(C(=O)Nc3cn4cc(C)nc(C)c4n3)c3nn(C)cc23)CC1` [Compound 333, N-(6,8-dimethylimidazo[1,2-a]pyrazin-2-yl)-4-[4-(ethylamino)-1-piperidyl]-6-methoxy-2-methyl-indazole-7-carboxamide], for which the IC50 with HTT mRNA [1], in the assay with MYB mRNA [2], in the assay on MYB mRNA [4] and in the assay on HTT mRNA [5] was over 10000 nM in each case. In addition, the GI50 in assay [3] is over 10000 nM. Also, the AC50 with MYB mRNA [4] and with HTT mRNA [5] was over 10000 nM in each case.

Regarding `Cc1cn2cc(NC(=O)c3c(F)cc(N4CCC(NC5CC5)CC4)c4cn(C)nc34)nc2c(C)n1` [Compound 334, 4-(4-(cyclopropylamino)-piperidin-1-yl)-N-(6,8-dimethyl-imidazo[1,2-a]pyrazin-2-y1)-6-fluoro-2-methyl-2H-indazole-7-carboxamide bis(2,2,2-trifluoroacetate)], the IC50 is over 10000 nM in the assay with HTT mRNA [1], 100 to 1000 nM in the assay with MYB mRNA [2], 100 to 1000 nM in the assay with MYB mRNA [4] and over 10000 nM in the assay with HTT mRNA [5]. Besides, the concentration for 50% growth inhibition (GI50) in assay [3] lay within 100 to 1000 nM. The results for the AC50 in the assay with MYB mRNA [4] and in the assay on HTT mRNA [5] were under 100 nM and 1000 to 10000 nM, respectively.

For the compound `CCNC1CCN(c2cc(Cl)c(C(=O)Nc3cn4cc(C)nc4c(F)c3OC)c3nn(C)cc23)CC1` [Compound 335, 6-chloro-4-[4-(ethylamino)-1-piperidyl]-N-(8-fluoro-7-methoxy-2-methyl-imidazo[1,2-a]pyridin-6-yl)-2-methyl-indazole-7-carboxamide], the 50% inhibitory concentration (IC50) with HTT mRNA [1], in the assay with MYB mRNA [2], in the assay with MYB mRNA [4] and with HTT mRNA [5] was under 100 nM in each case. The GI50 in assay [3] was under 100 nM. In addition, the half-maximal activity concentration (AC50) in the assay with MYB mRNA [4] and with HTT mRNA [5] was under 100 nM in each case.

With `CCNC1CCN(c2cc(F)c(C(=O)Nc3cn4cc(CC5CC5)nc4c(F)c3OC)c3nn(C)cc23)CC1` [Compound 336, N-[2-(cyclopropyl-methyl)-8-fluoro-7-methoxyimidazo-[1,2-a]pyridin-6-yl]-4-[4-(ethylamino)-1-piperidyl]-6-fluoro-2-methyl-indazole-7-carboxamide], the 50% inhibitory concentration (IC50) in the assay on HTT mRNA [1], in the assay with MYB mRNA [2], in the assay with MYB mRNA [4] and in the assay on HTT mRNA [5] was over 10000 nM each time. For the same compound, the GI50 in assay [3] is over 10000 nM. Further, the concentration at half-maximal activity (AC50) with MYB mRNA [4] and in the assay with HTT mRNA [5] was over 10000 nM each time.

As to `CCNC1CCN(c2ccc(C(=O)Nc3cn4cc(CO)nc(C)c4n3)c3nn(C)cc23)CC1` [Compound 337, 4-(4-(ethylamino)piperidin-1-yl)-N-(6-(hydroxymethyl)-8-methylimidazo[1,2-a]pyrazin-2-yl)-2-methyl-2H-indazole-7-carboxamide 2,2,2-trifluoroacetate], the IC50 is over 10000 nM in the assay with HTT mRNA [1], 1000 to 10000 nM in the assay on MYB mRNA [2], 1000 to 10000 nM in the assay with MYB mRNA [4] and over 10000 nM in the assay on HTT mRNA [5]. Besides, the GI50 in assay [3] was over 10000 nM. Besides, the results for the AC50 in the assay with MYB mRNA [4] and with HTT mRNA [5] were 1000 to 10000 nM and over 10000 nM, respectively.

Take `CCNC1CCN(c2ccc(C(=O)Nc3cc(Cc4ccccc4)c4nc(C)cn4c3)c3nn(C)cc23)CC1` [Compound 338, N-(8-benzyl-2-methylimidazo-[1,2-a]pyridin-6-yl)-4-[4-(ethylamino)-1-piperidyl]-2-methyl-indazole-7-carboxamide]: the concentration for half-maximal inhibition (IC50) in the assay on HTT mRNA [1] was 1000 to 10000 nM; with MYB mRNA [2] it was under 100 nM; with MYB mRNA [4], under 100 nM; in the assay with HTT mRNA [5], 1000 to 10000 nM. The GI50 in assay [3] fell in the range of 100 to 1000 nM. Besides, the AC50 with MYB mRNA [4] was under 100 nM; in the assay on HTT mRNA [5] it was 1000 to 10000 nM.

In the case of `CCNC1CCN(c2ccc(C(=O)Nc3cc(CC(=O)O)c4nc(C)cn4c3)c3nn(C)cc23)CC1` [Compound 339, 2-[6-[[4-[4-(ethylamino)-1-piperidyl]-2-methyl-indazole-7-carbonyl]amino]-2-methyl-imidazo[1,2-a]-pyridin-8-yl]acetic acid], the half-inhibitory concentration (IC50) with HTT mRNA [1], in the assay on MYB mRNA [2], in the assay with MYB mRNA [4] and in the assay with HTT mRNA [5] was 100 to 1000 nM each time. In assay [3], the GI50 was in the range of 100 to 1000 nM. For the same compound, the AC50 with MYB mRNA [4] and in the assay with HTT mRNA [5] was 100 to 1000 nM in each case.
